Experimental data published in article PMC4912613, “A broad analysis of resistance development in the malaria parasite” (Nature Communications, 2016).

Tests used:
P. falciparum strain 3D7 = test: Asexual blood stage 3H-hypoxanthine incorporation assay, 3D7; type: cell-based, Plasmodium falciparum; conditions: Plasmodium falciparum, 3D7, asexual stage, P. falciparum 3D7; read-out: 3D7 EC50
Experimental: The 48-h assay was carried out in a 96-well format following standard methods using the ^3H-hypoxanthine incorporation assay. The raw EC50 values corresponding to this assay can be found in Supplementary Data 3. Briefly, this assay relies on the parasite incorporation of labelled hypoxanthine that is proportional to P. falciparum growth. A culture of parasitized RBCs (0.5% parasitemia with a percentage of ring stage higher than 70% of total parasitemia, 2.0% haematocrit) in RPMI-1640, […] and 5 μM hypoxanthine was exposed to drug serial dilutions. Plates were incubated for 24 h at 37 °C, 5% CO2, 5% O2 and 90% N2. After 24 h of incubation, ^3H-hypoxanthine was added and plates were incubated for an additional 24-h period. After that, parasites were harvested on a glass fibre filter using a TOMTEC Cell Harvester 96. Filters were dried and melt-on scintillator sheets were used to determine the incorporation of ^3H-hypoxanthine. Radioactivity was measured using a microbeta counter. Data were normalized using the incorporation of the positive (parasitized RBCs without drug) and negative (same culture with artesunate at 2 μM) controls. All assays were conducted in triplicate using three independently grown cultures, and EC50 values were determined using the XLfit add-in module for Excel (version 2.3.1) from Grafit (version 5.3.1.3), where parameter h is the assay hill slope, x is the compound concentration and y is the inhibition of growth effect. The XLfit equation is: […]

[1] = tested on: NITD609-R2 (PfATP4 T418N and P990R, parent Dd2); test: Cross-resistance EC50 assay, NITD609-R2; type: cell-based; conditions: Plasmodium falciparum, SYBR green 72 hour assay, asynchronized parasites, 96-well or 1536-well format
From the text: (§1) To evaluate potential overlapping activity against known antimalarial drug targets, we performed dose-response studies with each compound against our assembled set of drug-resistant lines and their corresponding parents, in an asexual blood stage proliferation assay (Table 1). Comparisons were made to the drug-sensitive strain 3D7 when a parent was unavailable (TM90C2A, W2 and Dd2). As laboratories conducted EC50 assays with different strains and protocols, all comparisons were made between assays from the same laboratory and under the same assay conditions. Compounds displaying >5-fold EC50 shifts relative to the parent or sensitive strain were flagged as having potentially non-novel targets. Average fold shifts per strain ranged from 0.82 to 2.34, with a median of 1.23 indicating there was not common resistance to any one resistant clone. No resistance patterns were observed when classifying the compounds based on chemical structure, but this was not surprising given the diversity of compounds chosen. On the other hand, given that these confirmed compounds were derived from larger unconfirmed hit lists to which some filtration criteria may have been applied (for example, elimination of obvious dihydrofolate reductase inhibitors[32]), some[10][11][12][13] pre-existing bias may exist in the set. […]
(§2) Alternatively, a SYBR Green-based proliferation approach was used for the 72-h assay, as previously described. Briefly, a culture of either synchronized or asynchronous parasitized RBCs (0.3% parasitemia and 4% haematocrit) in screening medium (identical to supplemented medium above except no serum was added) was exposed to serial drug dilutions. Plates were incubated at 37 °C and gassed with 93% N2, 4% CO2 and 3% O2 for 72 h. Following incubation, 10 × SYBR Green I (Invitrogen; supplied in 10,000 × concentration) in lysis buffer ([…], 5 mM EDTA, 0.16% Saponin wt per vol and 1.6% Triton X vol per vol) was added to the wells and the plates were incubated overnight at room temperature before plate reading. EC50 assays were repeated three times, taking the average EC50 value from each assay set, and removing any outliers using a single iteration of Grubbs' test, eliminating values with z-scores above the critical z-value (α=0.05). The raw EC50 values for synchronized parasites assayed in a 384-well format are listed in Supplementary Data 4. The raw EC50 values for asynchronous parasites assayed in a 96 or 1536-well format are listed in Supplementary Data 5.
(§3) EC50 values for each strain were compared with those of the corresponding parent strain to determine fold-shift changes and identify resistance. To minimize the cause variance between assays, all comparisons were conducted between strains assayed under identical conditions. A one-way ANOVA followed by a Dunnet's post-test was conducted in GraphPad Prism to identify significant changes between the parent and resistant strain.

[2] = tested on: TM90C2A (DHFR, folate pathway; compared with 3D7); test: Cross-resistance EC50 assay, TM90C2A; type: cell-based; conditions: Plasmodium falciparum, 48 h, read-out: TM90C2A (3D7 Parent) Average EC50
Method in brief: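 EC50 fold shifts were derived from blood-stage growth assays run in parallel on mutant and parent strains within one laboratory. Growth was measured either by tritiated hypoxanthine uptake (48 h) or SYBR Green I staining (72 h).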

PfCRT-Q352R (parent Dd2) = test: Cross-resistance EC50 assay, PfCRT-Q352R; type: cell-based; conditions: Plasmodium falciparum, DD2, 72 h, read-out: PfCRT:Q352R (Dd2 Parent) Average EC50
From the text: as §1, §2, §3

hsp90 (D88Y, parent Dd2) = test: Cross-resistance EC50 assay, hsp90; type: cell-based; conditions: Plasmodium falciparum; SYBR green 72 hour assay; synchronized parasites; 384-well format; strain HSP90 (Dd2 parent)
From the text: as §1, §2, §3

W2 = test: Cross-resistance EC50 assay, W2 parent; type: cell-based, Plasmodium falciparum; conditions: Plasmodium falciparum, 48 h, read-out: W2F6 (PARENT) Average EC50
Method in brief: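 P. falciparum asexual blood-stage proliferation, parent/sensitive strain of each resistant clone; 48-h assay with rings (0.5% parasitemia, 2.0% haematocrit) in RPMI-1640/5% AlbuMAX, ^3H-hypoxanthine added at 24 h, normalized to no-drug and 2 μM artesunate controls; alternatively 72-h SYBR Green assay (0.3% parasitemia, 4% haematocrit). EC50s from triplicate fits.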

CCCCCCCN(Cc1ccc(OC(C)(C)C(=O)OCC)cc1)C(=O)Nc1ccc(Cl)cc1OCC [MMV021735]
EC50 (P. falciparum strain 3D7): 383 nM | EC50 [1]: 0.773 µM | EC50 [2]: 891 nM | EC50 (PfCRT-Q352R (parent Dd2)): 259 nM | EC50 (hsp90 (D88Y, parent Dd2)): 275 nM | EC50 (W2): 361 nM

O=C(NC(c1ccccc1)c1ccc2cccnc2c1O)c1ccccc1 (stereo not drawn) [MMV666080]
EC50 (P. falciparum strain 3D7): 845 nM | EC50 [1]: 1.19 µM | EC50 [2]: 860 nM | EC50 (PfCRT-Q352R (parent Dd2)): 545 nM | EC50 (hsp90 (D88Y, parent Dd2)): 645 nM | EC50 (W2): 3160 nM

COc1ccc(N2CCN(C(CNC(=O)C3CCCCC3)c3ccc4c(c3)OCO4)CC2)cc1 (stereo not drawn) [MMV019662]
EC50 (P. falciparum strain 3D7): 340 nM | EC50 [1]: 0.512 µM | EC50 [2]: 209 nM | EC50 (PfCRT-Q352R (parent Dd2)): 356 nM | EC50 (hsp90 (D88Y, parent Dd2)): 790 nM | EC50 (W2): 428 nM

COc1ccc(C(=O)C2CC2c2ccc(Cl)cc2)cc1 (stereo not drawn) [MMV665924]
EC50 (P. falciparum strain 3D7): 820 nM | EC50 [1]: 1.69 µM | EC50 [2]: 1600 nM | EC50 (PfCRT-Q352R (parent Dd2)): 1400 nM | EC50 (hsp90 (D88Y, parent Dd2)): 1680 nM | EC50 (W2): 1380 nM

CCC(C)NCC(O)(c1ccc(Cl)cc1)c1ccc(Cl)cc1 (stereo not drawn) [MMV665928]
EC50 (P. falciparum strain 3D7): 494 nM | EC50 [1]: 0.18 µM | EC50 [2]: 432 nM | EC50 (PfCRT-Q352R (parent Dd2)): 486 nM | EC50 (hsp90 (D88Y, parent Dd2)): 501 nM | EC50 (W2): 137 nM
